Target: porcine pancreatic elastase (PPE) (Sus scrofa, UniProt P00772)
Experiment: PPE enzyme assay
Assay type: biochemical

Chain of porcine pancreatic elastase (PPE) (P00772 27-266): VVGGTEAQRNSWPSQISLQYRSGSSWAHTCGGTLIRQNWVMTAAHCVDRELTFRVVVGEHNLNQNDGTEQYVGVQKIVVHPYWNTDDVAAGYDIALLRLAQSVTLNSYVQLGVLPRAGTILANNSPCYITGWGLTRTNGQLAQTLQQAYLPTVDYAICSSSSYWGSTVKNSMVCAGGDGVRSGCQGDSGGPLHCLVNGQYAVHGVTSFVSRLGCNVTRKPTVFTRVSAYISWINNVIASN

IC50: 3.08 µM
SMILES: CC(C)(C)C(=O)Oc1ccc(S(=O)(=O)Nc2ccccc2C(=O)NCC(=O)O)cc1 [sivelestat]

Source: publication PMC4734386 (The Journal of organic chemistry, 2015)
